In ChEMBL document CHEMBL1144965, “A series of 2(Z)-2-benzylidene-6,7-dihydroxybenzofuran-3[2H]-ones as inhibitors of chorismate synthase” (Bioorg Med Chem Lett, 2003):

T1: Chorismate synthase (Streptococcus pneumoniae serotype 4 (strain ATCC BAA-334 / TIGR4), UniProt P0A2Y6)
T1 sequence (P0A2Y6 whole entry): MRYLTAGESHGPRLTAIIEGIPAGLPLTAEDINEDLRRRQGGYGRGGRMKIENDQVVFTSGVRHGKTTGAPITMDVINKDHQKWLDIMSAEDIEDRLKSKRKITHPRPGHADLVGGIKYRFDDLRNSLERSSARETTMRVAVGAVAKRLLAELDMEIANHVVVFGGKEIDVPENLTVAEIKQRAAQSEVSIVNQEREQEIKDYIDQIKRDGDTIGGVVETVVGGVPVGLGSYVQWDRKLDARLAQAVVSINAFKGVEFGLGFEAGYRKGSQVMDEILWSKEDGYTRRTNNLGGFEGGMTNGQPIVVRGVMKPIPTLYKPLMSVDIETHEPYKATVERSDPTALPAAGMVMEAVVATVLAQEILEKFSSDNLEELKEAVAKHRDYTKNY

B1: 3-phosphoshikimate 1-carboxyvinyltransferase (Escherichia coli K-12), P0A6D3 (protein)
chain: MESLTLQPIARVDGTINLPGSKSVSNRALLLAALAHGKTVLTNLLDSDDVRHMLNALTALGVSYTLSADRTRCEIIGNGGPLHAEGALELFLGNAGTAMRPLAAALCLGSNDIVLTGEPRMKERPIGHLVDALRLGGAKITYLEQENYPPLRLQGGFTGGNVDVDGSVSSQFLTALLMTAPLAPEDTVIRIKGDLVSKPYIDITLNLMKTFGVEIENQHYQQFVVKGGQSYQSPGTYLVEGDASSASYFLAAAAIKGGTVKVTGIGRNSMQGDIRFADVLEKMGATICWGDDYISCTRGELNAIDMDMNHIPDAAMTIATAALFAKGTTTLRNIYNWRVKETDRLFAMATELRKVGAEVEEGHDYIRITPPEKLNFAEIATYNDHRMAMCFSLVALSDTPVTILDPKCTAKTFPDYFEQLARISQAA

Columns and labels:
Chorismate synthase [1] = biological target: T1, Chorismate synthase; experiment: Inhibitory concentration against Streptococcus pneumoniae chorismate synthase
Chorismate synthase [2] = biological target: T1, Chorismate synthase; experiment: Inhibitory concentration against Streptococcus pneumoniae chorismate synthase; Not active
[3] = biological target: Chorismate synthase (Streptococcus pneumoniae); experiment: Competitive inhibitory activity with respect to EPSP (5-enolpyruvyl-shikimate- 3-phosphate) at chorismate synthase
[4] = (§1) Non-competitive inhibitory activity with respect to cofactor FMN
[5] = as §1; remark: listed apart in the source
[6] = substrate: CCN(CC)c1ccc(/C=C2/Oc3c(ccc(O)c3O)C2=O)cc1
Description: Michaelis-Menten constant for EPSP (5-enolpyruvyl-shikimate- 3-phosphate) synthase was evaluated

| Molecule | IC50 (Chorismate synthase [1]) [nM] | also measured |
| --- | --- | --- |
| COc1cccc(/C=C2/Oc3c(ccc(O)c3O)C2=O)c1O | 1700 | – |
| O=C1/C(=C\c2ccc(-n3ccnc3)cc2)Oc2c1ccc(O)c2O | 5100 | – |
| CCCCOc1ccc(/C=C2/Oc3c(ccc(O)c3O)C2=O)c(O)c1 | 450 | – |
| O=C1/C(=C\c2ccc(F)cc2)Oc2c1ccc(O)c2O | > 60000 | – |
| Cc1ccc(/C=C2/Oc3c(ccc(O)c3O)C2=O)cc1 | – | IC50 (Chorismate synthase [2]): Not Active |
| CCOC(=O)COc1ccc(/C=C2/Oc3c(ccc(O)c3O)C2=O)c(O)c1 | 10300 | – |
| COc1ccc(/C=C2/Oc3c(ccc(O)c3O)C2=O)c(O)c1 | 700 | Ki [3]: 100 nM; Ki [4]: 1400 nM |
| CCCCCOc1ccc(/C=C2/Oc3c(ccc(O)c3O)C2=O)c(O)c1 | 220 | – |
| O=C(O)COc1ccccc1/C=C1/Oc2c(ccc(O)c2O)C1=O | 1800 | – |
| O=C1/C(=C\c2ccccc2Cl)Oc2c1ccc(O)c2O | 5200 | – |
| O=C1/C(=C\c2ccc(OCCCO)cc2O)Oc2c1ccc(O)c2O | 2500 | – |
| CCCCCCOc1ccc(/C=C2/Oc3c(ccc(O)c3O)C2=O)c(O)c1 | 320 | – |
| CC(C)Oc1ccc(/C=C2/Oc3c(ccc(O)c3O)C2=O)c(O)c1 | 1000 | – |
| O=C1/C(=C\c2ccc([N+](=O)[O-])cc2)Oc2c1ccc(O)c2O | 4800 | – |
| CCN(CCO)c1ccc(/C=C2/Oc3c(ccc(O)c3O)C2=O)c(C)c1 | 3400 | – |
| O=C1/C(=C\c2ccc(OCCCCO)cc2O)Oc2c1ccc(O)c2O | 860 | – |
| CCN(CC)c1ccc(/C=C2/Oc3c(ccc(O)c3O)C2=O)cc1 | – | Ki [5]: 1700 nM |
| CN(C)c1ccc(/C=C2/Oc3c(ccc(O)c3O)C2=O)cc1 | 25900 | – |
| O=C1/C(=C\c2ccc(N3CCOCC3)cc2)Oc2c1ccc(O)c2O | > 50000 | – |
| O=C1/C(=C\c2ccc(OCCCCCCO)cc2O)Oc2c1ccc(O)c2O | 1600 | – |
| N#CCCCOc1ccc(/C=C2/Oc3c(ccc(O)c3O)C2=O)c(O)c1 | 1100 | – |
| O=C1/C(=C\c2ccccc2C(F)(F)F)Oc2c1ccc(O)c2O | 17300 | – |

| Molecule | IC50 (Chorismate synthase [1]) [nM] | also measured |
| --- | --- | --- |
| CCCOc1ccc(/C=C2/Oc3c(ccc(O)c3O)C2=O)c(O)c1 | 510 | – |
| CCOC(=O)CCCOc1ccc(/C=C2/Oc3c(ccc(O)c3O)C2=O)c(O)c1 | 650 | – |
| O=C1/C(=C\c2ccccc2O)Oc2c1ccc(O)c2O | 800 | – |
| CC(C)COc1ccc(/C=C2/Oc3c(ccc(O)c3O)C2=O)c(O)c1 | 580 | – |
| O=C1/C(=C\c2ccc(C(F)(F)F)cc2)Oc2c1ccc(O)c2O | 7000 | – |
| O=C(O)CCCOc1ccc(/C=C2/Oc3c(ccc(O)c3O)C2=O)c(O)c1 | 1100 | – |
| O=C1/C(=C\c2ccccc2[N+](=O)[O-])Oc2c1ccc(O)c2O | 2000 | – |
| O=C1/C(=C\c2ccc(N3CCCC3)cc2)Oc2c1ccc(O)c2O | 5500 | – |
| O=C1/C(=C\c2ccc(OCc3ccccc3)cc2O)Oc2c1ccc(O)c2O | 1000 | – |
| O=C(O)c1ccccc1/C=C1/Oc2c(ccc(O)c2O)C1=O | 10700 | – |
| O=C(O)COc1ccc(/C=C2/Oc3c(ccc(O)c3O)C2=O)c(O)c1 | 2600 | – |
| O=C1/C(=C\c2ccccc2)Oc2c1ccc(O)c2O | 3500 | – |
| Cc1ccccc1/C=C1/Oc2c(ccc(O)c2O)C1=O | 4000 | – |
| CCCCOc1ccc(/C=C2/Oc3c(ccc(O)c3O)C2=O)cc1 | 1500 | – |
| CCN(CC)c1ccc(/C=C2/Oc3c(ccc(O)c3O)C2=O)c(O)c1 | 5000 | – |
| COc1ccc(/C=C2/Oc3c(ccc(O)c3O)C2=O)cc1 | 14300 | – |
| CCOc1ccc(/C=C2/Oc3c(ccc(O)c3O)C2=O)cc1 | 5800 | – |
| N#Cc1ccc(/C=C2/Oc3c(ccc(O)c3O)C2=O)cc1 | – | IC50 (Chorismate synthase [2]): Not Active |
| O=C1/C(=C\c2ccc(O)cc2)Oc2c1ccc(O)c2O | 15000 | – |
| O=C(O)c1ccc(/C=C2/Oc3c(ccc(O)c3O)C2=O)cc1 | 24000 | – |
| COc1ccccc1/C=C1/Oc2c(ccc(O)c2O)C1=O | > 60000 | – |
| B1 | – | Km [6]: 30 µM |
